Experimental data as given in article PMC10018608 (Signal Transduction and Targeted Therapy, 2023).
Like-named read-outs stand apart in the source and are kept apart here.

Legend:
[1] = tested on: SARS-CoV-2 Omicron BA.1 (B.1.1.529.1); assay: In vitro antiviral screening, viral genome copies by RT-qPCR in VeroE6-TMPRSS2; assay type: cell-based; conditions: Omicron BA.1, VeroE6-TMPRSS2
in vivo [2] = conditions: male, ICR, mouse
various human proteases = assay: Mammalian proteases activity assay (text summary of the panel); assay type: biochemical; conditions: tested various human proteases
Protocol: (§1) The mammalian proteases activity assay was analyzed using the assay kit (Biovision, USA) in triplicate by following manufacturer’s manual.

[3] = tested on: SARS-CoV-2 Omicron BA.2 sublineage; assay type: in vivo, K18-hACE2 transgenic mice
[4] = for Corpora lutea / Implantation sites / Live embryos / Resorptions: cesarean section observation; for appearance malformation rate (%): fetal appearance
in vivo [5] = conditions: male, beagle, dog
[6] = Monkey
CYP2B6 = biological target: T1, CYP2B6 (Homo sapiens, UniProt P20813); assay: biochemical; assay type: in vitro ADME; conditions: CYP2B6 (Bupropion), HLM
T1 construct: Add 400 μL 0.2 mg/mL HLM; from tissue; host or cells: human liver microsomes (HLM)
T1 sequence (P20813 whole entry): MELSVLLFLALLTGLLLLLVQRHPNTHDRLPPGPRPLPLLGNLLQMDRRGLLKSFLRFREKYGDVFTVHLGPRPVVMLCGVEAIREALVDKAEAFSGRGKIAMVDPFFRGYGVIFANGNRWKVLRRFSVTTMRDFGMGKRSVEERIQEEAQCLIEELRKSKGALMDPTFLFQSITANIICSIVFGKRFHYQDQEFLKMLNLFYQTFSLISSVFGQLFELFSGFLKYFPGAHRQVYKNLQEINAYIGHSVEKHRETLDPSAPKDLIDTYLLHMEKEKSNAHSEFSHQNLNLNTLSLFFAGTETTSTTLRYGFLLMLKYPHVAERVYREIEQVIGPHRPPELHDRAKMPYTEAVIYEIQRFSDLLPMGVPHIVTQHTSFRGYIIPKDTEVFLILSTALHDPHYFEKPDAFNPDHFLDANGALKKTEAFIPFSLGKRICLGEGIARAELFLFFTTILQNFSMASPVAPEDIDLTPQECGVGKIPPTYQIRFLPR
Protocol: (§2) Preheat 0.1 M pH 7.4 K/Mg-buffer at 37 °C. The reference inhibitors for this assay are α-Naphthoflavone (1A2), Ticlopidine (2B6), Montelukast (2C8), Sulfaphenazole (2C9), Omeprazole (2C19), Quinidine (2D6), Ketoconazole (3A4). Test compound and reference inhibitors were dissolved in ACN. NADPH cofactor was dissolved in K/Mg-buffer. Each CYP450 isoform was prepared 2 mL substrate (1A2: Phenacetin, 2B6: Amfebutamone HCl, 2C8: Paclitaxel, 2C9: Diclofenac, 2C19: S-Mephenytoin, 2D6: Dextromethorphan, 3A4: Midazolam and Testosterone). Add 400 μL 0.2 mg/mL HLM and 2 μL of test compound set (serially diluted) to the assay wells. And then add 30 μL HLM-compound mixture and 15 μL substrate solution in the 96-well assay plate on ice. Then incubate the 96-well assay plate at 37 °C for 5 min. Add 15 µL of pre-warmed (37 °C) 8 mM NADPH solution to initiate the enzyme reaction. Incubate the assay plate at 37 °C for 5–45 min and quench the reaction. Then collect samples for LC/MS analysis.

CYP2C9 = biological target: T2, CYP2C9 (Homo sapiens, UniProt P11712); assay: biochemical; assay type: in vitro ADME; conditions: CYP2C9 (Diclofenac), HLM
T2 construct: Add 400 μL 0.2 mg/mL HLM; from tissue; host or cells: human liver microsomes (HLM)
T2 sequence (P11712 whole entry): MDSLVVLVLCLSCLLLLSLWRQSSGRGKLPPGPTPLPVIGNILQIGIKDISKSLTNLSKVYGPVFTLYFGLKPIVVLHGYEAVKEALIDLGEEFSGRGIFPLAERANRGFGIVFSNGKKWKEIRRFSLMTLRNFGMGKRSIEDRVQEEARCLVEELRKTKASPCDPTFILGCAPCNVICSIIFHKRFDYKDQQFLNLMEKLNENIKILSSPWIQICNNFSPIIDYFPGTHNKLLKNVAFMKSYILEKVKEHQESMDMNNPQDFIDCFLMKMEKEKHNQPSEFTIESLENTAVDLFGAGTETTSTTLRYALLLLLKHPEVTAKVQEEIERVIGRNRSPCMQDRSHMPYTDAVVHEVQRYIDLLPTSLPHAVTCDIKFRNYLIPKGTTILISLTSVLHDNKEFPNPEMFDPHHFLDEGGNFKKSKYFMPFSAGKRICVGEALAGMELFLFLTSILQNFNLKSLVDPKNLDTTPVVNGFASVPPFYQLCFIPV
Protocol: as §2

CYP2C8 = biological target: T3, CYP2C8 (Homo sapiens, UniProt P10632); assay: biochemical; assay type: in vitro ADME; conditions: CYP2C8 (Paclitaxel), HLM
T3 construct: Add 400 μL 0.2 mg/mL HLM; from tissue; host or cells: human liver microsomes (HLM)
T3 sequence (P10632 whole entry): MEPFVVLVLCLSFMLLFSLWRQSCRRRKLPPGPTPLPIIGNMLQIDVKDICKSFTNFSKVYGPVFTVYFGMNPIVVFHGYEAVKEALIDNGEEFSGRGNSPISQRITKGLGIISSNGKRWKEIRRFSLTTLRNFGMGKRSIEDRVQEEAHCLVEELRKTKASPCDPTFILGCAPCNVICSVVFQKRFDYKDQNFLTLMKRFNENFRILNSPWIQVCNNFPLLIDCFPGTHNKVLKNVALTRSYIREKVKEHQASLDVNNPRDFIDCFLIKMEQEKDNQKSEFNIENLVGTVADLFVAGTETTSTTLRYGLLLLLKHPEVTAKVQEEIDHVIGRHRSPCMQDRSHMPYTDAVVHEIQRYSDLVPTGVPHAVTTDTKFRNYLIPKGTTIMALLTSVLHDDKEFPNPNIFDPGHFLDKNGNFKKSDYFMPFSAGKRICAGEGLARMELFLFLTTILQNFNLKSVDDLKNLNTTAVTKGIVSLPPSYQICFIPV
Protocol: as §2

CYP1A2 = biological target: T4, CYP1A2 (Homo sapiens, UniProt P05177); assay: biochemical; assay type: in vitro ADME; conditions: CYP1A2 (Phenacetin), HLM
T4 construct: Add 400 μL 0.2 mg/mL HLM; from tissue; host or cells: human liver microsomes (HLM)
T4 sequence (P05177 whole entry): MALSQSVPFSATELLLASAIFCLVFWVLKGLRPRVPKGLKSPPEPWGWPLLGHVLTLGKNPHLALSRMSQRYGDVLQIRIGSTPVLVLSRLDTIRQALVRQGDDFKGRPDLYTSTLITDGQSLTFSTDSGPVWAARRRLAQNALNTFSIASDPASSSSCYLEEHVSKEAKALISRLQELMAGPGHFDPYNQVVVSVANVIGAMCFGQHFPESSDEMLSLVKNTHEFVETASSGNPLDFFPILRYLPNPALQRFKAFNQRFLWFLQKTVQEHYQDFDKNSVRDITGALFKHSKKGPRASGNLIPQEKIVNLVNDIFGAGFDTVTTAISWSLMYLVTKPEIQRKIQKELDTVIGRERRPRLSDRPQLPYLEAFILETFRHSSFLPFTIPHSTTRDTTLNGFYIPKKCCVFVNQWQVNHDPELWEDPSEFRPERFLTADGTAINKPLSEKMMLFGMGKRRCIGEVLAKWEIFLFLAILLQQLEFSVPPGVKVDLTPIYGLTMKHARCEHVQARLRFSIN
Protocol: as §2

CYP2C19 = biological target: T5, CYP2C19 (Homo sapiens, UniProt P33261); assay: biochemical; assay type: in vitro ADME; conditions: CYP2C19 (S-Mephenytoin), HLM
T5 construct: Add 400 μL 0.2 mg/mL HLM; from tissue; host or cells: human liver microsomes (HLM)
T5 sequence (P33261 whole entry): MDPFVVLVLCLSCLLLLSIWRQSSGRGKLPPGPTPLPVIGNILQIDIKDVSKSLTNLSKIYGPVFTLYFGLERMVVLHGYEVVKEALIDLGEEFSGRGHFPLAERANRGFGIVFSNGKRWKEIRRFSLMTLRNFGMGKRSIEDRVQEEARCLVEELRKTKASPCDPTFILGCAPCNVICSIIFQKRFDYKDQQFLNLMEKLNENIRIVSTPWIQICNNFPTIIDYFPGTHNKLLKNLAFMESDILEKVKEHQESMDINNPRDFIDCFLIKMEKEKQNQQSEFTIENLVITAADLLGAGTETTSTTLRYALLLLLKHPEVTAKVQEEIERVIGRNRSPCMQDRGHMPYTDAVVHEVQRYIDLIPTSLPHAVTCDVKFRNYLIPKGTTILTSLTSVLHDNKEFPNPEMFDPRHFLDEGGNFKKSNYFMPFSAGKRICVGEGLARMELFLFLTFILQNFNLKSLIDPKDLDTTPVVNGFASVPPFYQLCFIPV
Protocol: as §2

CYP2D6 = biological target: T6, CYP2D6 (Homo sapiens, UniProt P10635); assay: biochemical; assay type: in vitro ADME; conditions: CYP2D6 (Dextromethorphan), HLM
T6 construct: Add 400 μL 0.2 mg/mL HLM; from tissue; host or cells: human liver microsomes (HLM)
T6 sequence (P10635 whole entry): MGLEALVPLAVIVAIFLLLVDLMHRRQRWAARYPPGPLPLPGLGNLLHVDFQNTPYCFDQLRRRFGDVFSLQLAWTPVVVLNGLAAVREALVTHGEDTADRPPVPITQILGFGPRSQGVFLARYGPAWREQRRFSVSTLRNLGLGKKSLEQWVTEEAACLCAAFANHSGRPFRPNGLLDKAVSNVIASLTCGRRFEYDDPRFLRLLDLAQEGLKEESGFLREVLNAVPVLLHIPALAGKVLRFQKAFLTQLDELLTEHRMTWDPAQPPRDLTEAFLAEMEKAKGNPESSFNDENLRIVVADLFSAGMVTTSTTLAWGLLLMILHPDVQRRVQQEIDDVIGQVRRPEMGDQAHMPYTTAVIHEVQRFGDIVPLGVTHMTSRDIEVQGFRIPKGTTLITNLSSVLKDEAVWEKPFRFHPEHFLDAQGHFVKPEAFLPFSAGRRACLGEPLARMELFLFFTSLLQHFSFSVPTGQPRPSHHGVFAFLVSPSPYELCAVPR
Protocol: as §2

CYP3A4 = biological target: T7, CYP3A4 (Homo sapiens, UniProt P08684); assay: biochemical; assay type: in vitro ADME
T7 construct: Add 400 μL 0.2 mg/mL HLM; from tissue; host or cells: human liver microsomes (HLM)
T7 sequence (P08684 whole entry): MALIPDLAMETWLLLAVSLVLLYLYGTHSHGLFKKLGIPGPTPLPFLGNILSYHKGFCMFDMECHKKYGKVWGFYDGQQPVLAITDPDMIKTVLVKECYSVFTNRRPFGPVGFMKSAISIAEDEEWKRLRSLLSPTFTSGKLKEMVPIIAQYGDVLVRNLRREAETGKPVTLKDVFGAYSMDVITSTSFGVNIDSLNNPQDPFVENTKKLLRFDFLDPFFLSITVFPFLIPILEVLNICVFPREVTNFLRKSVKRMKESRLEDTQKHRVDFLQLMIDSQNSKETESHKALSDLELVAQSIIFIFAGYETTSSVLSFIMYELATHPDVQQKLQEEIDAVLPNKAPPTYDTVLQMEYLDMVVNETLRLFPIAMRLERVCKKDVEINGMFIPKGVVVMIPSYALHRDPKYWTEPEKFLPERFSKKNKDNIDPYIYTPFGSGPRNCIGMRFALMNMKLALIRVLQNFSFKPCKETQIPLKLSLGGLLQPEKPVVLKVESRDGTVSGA
Protocol: as §2

Neutrophil Elastase = biological target: T8, Neutrophil Elastase (Homo sapiens, UniProt P08246); assay: Mammalian proteases activity assay; assay type: biochemical
T8 construct: purchased Biovision, USA
T8 sequence (P08246 30-267): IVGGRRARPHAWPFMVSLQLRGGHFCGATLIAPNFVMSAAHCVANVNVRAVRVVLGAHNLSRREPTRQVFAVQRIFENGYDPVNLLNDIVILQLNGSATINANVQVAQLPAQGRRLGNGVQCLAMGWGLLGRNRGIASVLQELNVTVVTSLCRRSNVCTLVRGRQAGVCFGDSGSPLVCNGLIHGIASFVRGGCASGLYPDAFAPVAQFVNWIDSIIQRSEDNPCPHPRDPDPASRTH
Protocol: as §1

Human Cathepsin L = biological target: T9, Human Cathepsin L (Homo sapiens, UniProt P07711); assay: Mammalian proteases activity assay; assay type: biochemical
T9 construct: purchased Biovision, USA
T9 sequence (P07711 114-333): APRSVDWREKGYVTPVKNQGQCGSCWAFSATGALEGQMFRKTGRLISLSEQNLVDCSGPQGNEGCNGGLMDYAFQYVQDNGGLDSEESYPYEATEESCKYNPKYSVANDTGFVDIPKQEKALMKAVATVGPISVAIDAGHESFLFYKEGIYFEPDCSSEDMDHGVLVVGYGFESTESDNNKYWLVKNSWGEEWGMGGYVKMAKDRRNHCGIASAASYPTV
Protocol: as §1

[7] = ICR Mice
[8] = Beagle Dog, i.v. (1 mg/kg)
[9] = SD rats
[10] = female, SD, rat, in vivo, 1000 mg/kg

Compound: COC[C@@H](NC(=O)C1CCCC(F)(F)C1)C(=O)N[C@H](Cc1ccccc1)C(=O)C(=O)NCc1nccs1 (stereo partly drawn) [SY110, N-((R)-1-(((R)-3,4-dioxo-1-phenyl-4-((thiazol-2-ylmethyl)amino)butan-2-yl)amino)-3-methoxy-1-oxopropan-2-yl)-3,3-difluorocyclohexane-1-carboxamide]
- antiviral activity among the six compounds tested [1]: most potent antiviral activity
- AUC(0-inf) (in vivo [2]; iv, 1 mg/kg): 87.1 ± 7.81 ng·h/mL
- AUC(0-t) (in vivo [2]; iv, 1 mg/kg): 85.9 ± 7.6 ng·h/mL
- Cmax (in vivo [2]; iv, 1 mg/kg): 285 ± 16.4 ng/mL
- Tmax (in vivo [2]; iv, 1 mg/kg): 4.8 min
- clearance (in vivo [2]; iv, 1 mg/kg): 192 ± 16.4 mL/min/kg
- half-life (in vivo [2]; iv, 1 mg/kg): 16.2 ± 10.2 min
- AUC(0-inf) (in vivo [2]; po, 150 mg/kg): 15700 ± 4420 ng·h/mL
- AUC(0-t) (in vivo [2]; po, 150 mg/kg): 15100 ± 5140 ng·h/mL
- Cmax (in vivo [2]; po, 150 mg/kg): 4080 ± 636 ng/mL
- Tmax (in vivo [2]; po, 150 mg/kg): 19.8 ± 8.4 min
- half-life (in vivo [2]; po, 150 mg/kg): 195 ± 61.8 min
- IC50 (various human proteases): > 100 µM
- lung pathology, H&E staining ([3]; mouse, in vivo): only scattered inflammatory cell infiltrates can be occasionally found in the alveolar interstitium
- viral N protein expression in the lung tissue ([3]; mouse, in vivo): substantially reduced the viral N protein expression
- production of the infectious virus particles in the lung ([3]; plaque assays, therapeutic treatment): effectively suppressed
- Abnormal initial position of common carotid artery [4, 10]: 0.0 ± 0.0
- Abnormal initial position of subclavian artery [4, 10]: 0.0 ± 0.0
- Abnormal position of umbilical artery [4, 10]: 0.0 ± 0.0
- Absent of aortic arch [4, 10]: 0.0 ± 0.0
- Absent of innominate artery [4, 10]: 0.0 ± 0.0
- Rib: 14 Ribs – [V] [4, 10]: 6.9 ± 10.1
- Rib: Shortened #13 – [V] [4, 10]: 2.9 ± 6.4
- Skull: Interparietal bone, incomplete ossification – [V] [4, 10]: 0.0 ± 0.0
- Skull: Parietal bone, incomplete ossification – [V] [4, 10]: 0.0 ± 0.0
- Visceral malformation rate (%) [4, 10]: 0.0 ± 0.0%
- Corpora lutea ([4]; rat, 100 mg/kg): 16.2 ± 2.1
- Implantation sites ([4]; rat, 100 mg/kg): 15.0 ± 3.5
- Live embryos ([4]; rat, 100 mg/kg): 14.5 ± 3.6
- Resorptions ([4]; rat, 100 mg/kg): 0.5 ± 0.8
- Corpora lutea ([4]; rat, 300 mg/kg): 17.7 ± 1.5
- Implantation sites ([4]; rat, 300 mg/kg): 16.9 ± 1.5
- Live embryos ([4]; rat, 300 mg/kg): 16.3 ± 1.6
- Resorptions ([4]; rat, 300 mg/kg): 0.6 ± 0.5
- Corpora lutea ([4]; rat, 1000 mg/kg): 17.4 ± 2.5
- Implantation sites ([4]; rat, 1000 mg/kg): 17.0 ± 2.5
- Live embryos ([4]; rat, 1000 mg/kg): 16.4 ± 2.1
- Resorptions ([4]; rat, 1000 mg/kg): 0.6 ± 0.9
- appearance malformation rate (%) ([4]; rat, 100 mg/kg): 0.0 ± 0.0%
- appearance malformation rate (%) ([4]; rat, 300 mg/kg): 0.0 ± 0.0%
- appearance malformation rate (%) ([4]; rat, 1000 mg/kg): 0.0 ± 0.0%
- embryo-fetal development study outcome ([4]; rats, 1000 mg/kg/day (the highest dose tested)): no observed SY110-related maternal toxicity, reproductive toxicity, and effect on embryo-fetal viability
- no observed adverse effect level (14 days repeated dose toxicity study, text says rats): 600 mg/kg
- Results, repeated dose two-week toxicity study (mice, p.o., 600 mg/kg, twice daily, 14 days): without death, significant body weight change, or pathological changes in the heart, liver, lung, kidney, or spleen
- AUC(0-inf) (in vivo [5]; iv, 1 mg/kg): 628 ± 113 ng·h/mL
- AUC(0-t) (in vivo [5]; iv, 1 mg/kg): 624 ± 113 ng·h/mL
- Cmax (in vivo [5]; iv, 1 mg/kg): 1270 ± 333 ng/mL
- Tmax (in vivo [5]; iv, 1 mg/kg): 4.98 min
- clearance (in vivo [5]; iv, 1 mg/kg): 27.1 mL/min/kg
- half-life (in vivo [5]; iv, 1 mg/kg): 36.6 ± 3 min
- AUC(0-inf) (in vivo [5]; po, 10 mg/kg): 8290 ± 378 ng·h/mL
- AUC(0-t) (in vivo [5]; po, 10 mg/kg): 8240 ± 370 ng·h/mL
- Cmax (in vivo [5]; po, 10 mg/kg): 3060 ± 136 ng/mL
- Tmax (in vivo [5]; po, 10 mg/kg): 60 min
- bioavailability (in vivo [5]; po, 10 mg/kg): 132%
- half-life (in vivo [5]; po, 10 mg/kg): 335 ± 74.4 min
- MTRlast ([6]; i.v. (1 mg/kg)): 0.90 ± 0.18 h
- MTRlast ([6]; p.o. (10 mg/kg)): 4.71 ± 0.89 h
- IC50 (CYP2B6): > 30 µM
- IC50 (CYP2C9): > 30 µM
- IC50 (CYP2C8): > 30 µM
- IC50 (CYP1A2): > 30 µM
- IC50 (CYP2C19): > 30 µM
- IC50 (CYP2D6): > 30 µM
- IC50 (CYP3A4; CYP3A4 (Midazolam), HLM): > 30 µM
- IC50 (CYP3A4; CYP3A4 (Testosterone), HLM): > 30 µM
- IC50 (CYP3A4; CYP3A4, text, substrate not stated there): > 30 µM
- IC50 (Neutrophil Elastase): > 100 µM
- IC50 (Human Cathepsin L): > 100 µM
- MTRlast ([7]; i.v. (1 mg/kg)): 0.17 ± 0.03 h
- Vzobs ([7]; i.v. (1 mg/kg)): 4.27 ± 2.29 L/kg
- MTRlast ([7]; p.o. (150 mg/kg)): 3.62 ± 1.18 h
- MTRlast [8]: 0.47 ± 0.05 h
- MTRlast ([9]; i.v. (1 mg/kg)): 2.34 ± 0.22 h
- Vzobs ([9]; i.v. (1 mg/kg)): 3.03 ± 0.71 L/kg
- MTRlast ([9]; p.o. (10 mg/kg)): 6.60 ± 0.89 h
